PubChem BioAssay (NCI)
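Assay format: 96-well plates, 48-hour exposure. GI50 = concentration required for 50% inhibition of growth. TGI marks complete inhibition of growth.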

Columns and labels:
Assay in all cases: NCI anticancer screen, dose series, 48 h
[1] = system: SW-620 colon
[2] = system: MDA-MB-468 breast
[3] = system: A549 NSCLC
[4] = system: SK-MEL-5 melanoma
[5] = system: OVCAR-5 ovarian
[6] = system: T-47D breast
[7] = system: HT29 colon
[8] = system: OVCAR-4 ovarian
[9] = system: MDA-MB-435
[10] = system: HOP-92 NSCLC
[11] = system: ACHN renal
[12] = system: 786-0 renal
[13] = system: NCI-H23 lung
[14] = system: A498 renal
[15] = system: OVCAR-3 ovarian
[16] = system: UACC-257 melanoma
[17] = system: NCI-H226 lung
[18] = system: SK-MEL-28 melanoma
[19] = system: DU-145 prostate
[20] = system: RPMI-8226 leukemia
[21] = system: SF-268 CNS
[22] = system: SNB-75 CNS
[23] = system: HL-60(TB) leukemia
[24] = system: HCT-15 colon
[25] = system: COLO 205 colon
[26] = system: SN12C renal
[27] = system: OVCAR-8 ovarian
[28] = system: SK-OV-3 ovarian
[29] = system: CAKI-1 renal
[30] = system: IGROV1 ovarian
[31] = system: HCC-2998 colon
[32] = system: NCI-H522 lung
[33] = system: K-562 leukemia
[34] = system: TK-10 renal
[35] = system: SF-539 CNS
[36] = system: M14 melanoma
[37] = system: NCI/ADR-RES ovarian
[38] = system: HCT-116 colon
[39] = system: RXF 393 renal
[40] = system: HOP-62 NSCLC
[41] = system: U251 CNS
[42] = system: BT-549 breast
[43] = system: SK-MEL-2 melanoma
[44] = system: MOLT-4 leukemia
[45] = system: PC-3 prostate
[46] = system: NCI-H460 lung
[47] = system: SNB-19 CNS
[48] = system: CCRF-CEM leukemia
[49] = system: MALME-3M melanoma
[50] = system: EKVX NSCLC
[51] = system: HS 578T breast
[52] = system: KM12 colon
[53] = system: UACC-62 melanoma
[54] = system: SF-295 CNS
[55] = system: LOX IMVI melanoma
[56] = system: MCF7 breast

Cc1cc(C)cc(Oc2cccc(-c3c(C)nnn3C3CCN(CCN(C)C)CC3)n2)c1
GI50 [1]: 2.73 µM
TGI [1]: 16.2 µM
GI50 [2]: 1.07 µM
TGI [2]: 3.73 µM
GI50 [3]: 1.46 µM
TGI [3]: 12.9 µM
GI50 [4]: 1.4 µM
TGI [4]: 4.95 µM
GI50 [5]: 3.61 µM
TGI [5]: 22.1 µM
GI50 [6]: 2 µM
TGI [6]: 24.3 µM
GI50 [7]: 0.742 µM
TGI [7]: 5.54 µM
GI50 [8]: 3.1 µM
TGI [8]: 21 µM
GI50 [9]: 1.6 µM
TGI [9]: 14.3 µM
GI50 [10]: 0.455 µM
TGI [10]: 15.4 µM
GI50 [11]: 2.01 µM
TGI [11]: 15.7 µM
GI50 [12]: 0.939 µM
TGI [12]: 3.89 µM
GI50 [13]: 3.43 µM
TGI [13]: 16.1 µM
GI50 [14]: 1.45 µM
TGI [14]: 7.52 µM
GI50 [15]: 1.66 µM
TGI [15]: 6.66 µM
GI50 [16]: 1.48 µM
TGI [16]: 15.8 µM
GI50 [17]: 2.44 µM
TGI [17]: 17.2 µM
GI50 [18]: 3.9 µM
TGI [18]: 18.7 µM
GI50 [19]: 12.3 µM
TGI [19]: 34 µM
GI50 [20]: 0.378 µM
TGI [20]: 2.78 µM
GI50 [21]: 4.56 µM
TGI [21]: 20.1 µM
GI50 [22]: 0.59 µM
TGI [22]: 8.53 µM
GI50 [23]: 0.134 µM
TGI [23]: 1.18 µM
GI50 [24]: 1.41 µM
TGI [24]: 11.2 µM
GI50 [25]: 0.632 µM
TGI [25]: 10.8 µM
GI50 [26]: 4.27 µM
TGI [26]: 18.6 µM
GI50 [27]: 1.88 µM
TGI [27]: 13.7 µM
GI50 [28]: 0.893 µM
TGI [28]: 3.52 µM
GI50 [29]: 0.745 µM
TGI [29]: 15.6 µM
GI50 [30]: 5.15 µM
TGI [30]: 18.7 µM
GI50 [31]: 4.15 µM
TGI [31]: 17.8 µM
GI50 [32]: 1.23 µM
TGI [32]: 4.41 µM
GI50 [33]: 0.671 µM
TGI [33]: 6.82 µM
GI50 [34]: 0.707 µM
TGI [34]: 13.1 µM
GI50 [35]: 1.71 µM
TGI [35]: 8.22 µM
GI50 [36]: 1.08 µM
TGI [36]: 11.5 µM
GI50 [37]: 2.63 µM
TGI [37]: 14.3 µM
GI50 [38]: 1.41 µM
TGI [38]: 10.1 µM
GI50 [39]: 3.52 µM
TGI [39]: 12.6 µM
GI50 [40]: 1.13 µM
TGI [40]: 12.9 µM
GI50 [41]: 3.16 µM
TGI [41]: 15.3 µM
GI50 [42]: 1.67 µM
TGI [42]: 3.65 µM
GI50 [43]: 2.4 µM
TGI [43]: 12.5 µM
GI50 [44]: 1.85 µM
TGI [44]: 6.74 µM
GI50 [45]: 2.07 µM
TGI [45]: 17.2 µM
GI50 [46]: 2.45 µM
TGI [46]: 13.1 µM
GI50 [47]: 5.51 µM
TGI [47]: 20.8 µM
GI50 [48]: 0.951 µM
TGI [48]: 5.13 µM
GI50 [49]: 2.08 µM
TGI [49]: 13.7 µM
GI50 [50]: 4.8 µM
TGI [50]: 21.1 µM
GI50 [51]: 1.77 µM
TGI [51]: 9.43 µM
GI50 [52]: 2.72 µM
TGI [52]: 16.6 µM
GI50 [53]: 0.554 µM
TGI [53]: 5.24 µM
GI50 [54]: 4.72 µM
TGI [54]: 19.4 µM
GI50 [55]: 1.28 µM
TGI [55]: 7.21 µM
GI50 [56]: 0.715 µM
TGI [56]: 12.3 µM
